Reference: patent publication US20150181873A1, “HERBICIDE-RESISTANT SUNFLOWER PLANTS, POLYNUCLEOTIDES ENCODING HERBICIDE=RESISTANT ACETO HYDROXY ACID SYNTHASE LARGE SUBUNIT PROTEINS, AND METHODS OF USE” (NIDERA S.A., priority 2013, published 2015)

Tests used:
Format in all cases: in vivo, Helianthus annuus
[1] = system: sunflower line GIM 5-7 (A205V); test: Greenhouse imazapir dose response, GIM 5-7; details: GIM5-7 (A205V), 14 DAT
Protocol: (§1) A greenhouse study was conducted to quantify and contrast the imazapir sensivity of the mutants A122T and A205V in different genetic backgrounds at the whole plant level in sunflower. Seeds of the different sunflower lines that were used in this study were obtained under field conditions.
(§2) Seeds were sown in Petri dishes and, after germination, plantlets were transplanted to pots of 10 cm of diameter in a potting media consisting of equal parts of vermiculite, soil and sand. Plants were grown in a greenhouse under natural light conditions supplemented with 400 W sodium halide lamps to provide a 16 hrs daylength. Day/night temperatures were 25 and 20° C., respectively. At the V2 stage 10 plants of each genotype were randomly assigned to each treatment consisting of […] imazapir doses (0, 40, 80, 160, 240, 320, 400 and 480 g ai/ha), and a zero-time biomass determination. Experiment was arranged as a randomized block design with a full factorial (sunflower line×treatment) arrangement of treatments and 10 replications.
(§3) On the day of herbicide application ten plants of each genotype were cut at the cotyledonal node and dried at 60° C. for 48 hrs zero-time for dried weight determination. […] Height was determined as the distance between the cotyledonal node and the apex of each plant. For root biomass determination, each plant was taken from the pot and the potting media was washed out from the roots. Above ground biomass data from each line were converted to biomass accumulation after application by subtracting the appropriate average zero-time biomass from each sample. Dry biomass data were converted to percentages of the untreated control plants within each line to allow direct comparisons between groups.

[2] = system: sunflower line GM1606 (A122T); test: Greenhouse imazapir dose response, GM1606; details: 14 DAT
Protocol: as §1, §2, §3

[3] = system: Conventional non-Clearfield sunflower variety; test: Greenhouse spray injury rating, conventional variety; details: imazapyr 240 gm ai/ha, scale 0-9
Description: Sunflower lines S4897, Clearfield® sunflower varieties A, B, C and a conventional non-Clearfield variety were sprayed with three rates of imazamox (Raptor™), 100, 200 and 300 gm ai/ha plus 0.5% Sun It II and two rates of imazapyr (Arsenal™) 160 and 360 gm ai/ha plus 0.5% Sun It II when the plants were at the two to three leaf stage. Ratings were taken at 14 days after application (DAT) for injury. Injury was rated on a scale from 0 to 9 where 0=no injury to 9=dead plant. Twelve plants were sprayed per herbicide/rate treatment. Statistical analysis was conducted with STATGRAPHICS Plus 5.0 by using ANOVA and LSD procedures.
After plants were sprayed, it was realized that a height difference between S4897 and other sunflower varieties would have impacted the actual herbicide dose that was delivered. The spray boom height had been calibrated against S4897 and since the other varieties were taller and closer to the boom they would have received a greater dose of herbicide. Rates were recalibrated for the other varieties to determine the approximate dose they would have received. Assessments were made as presented in Table 2 since it was not possible to make a direct rate comparison due to the effect of the height. For example injury scores were compare for S4897 treated imazamox rate 100 gm ai/ha to the other varieties treated at 75 gm ai/ha. The treatment dose of 300 gm ai/ha for line S4897 was equivalent to the treatment of 200 gm ai/ha for the other varieties, which […].

[4] = system: sunflower restorer line TH10 (A205V); test: Greenhouse imazapir dose response, TH10; details: 14 DAT
Protocol: as §1, §2, §3

SMILES: CC(C)C1(C)N=C(c2ncccc2C(=O)O)NC1=O (centres unmarked) [Imazapyr, imazapyr]
- biomass accumulation, % of untreated ([1]; 0.5x (40 g ai/ha)): 92.9%
- plant height, % of untreated ([1]; 0.5x (40 g ai/ha)): 79.1%
- root dry weight, % of untreated ([1]; 0.5x (40 g ai/ha)): 79.2%
- biomass accumulation, % of untreated ([1]; 1x (80 g ai/ha)): 75.1%
- plant height, % of untreated ([1]; 1x (80 g ai/ha)): 76.7%
- root dry weight, % of untreated ([1]; 1x (80 g ai/ha)): 56.3%
- biomass accumulation, % of untreated ([1]; 2x (160 g ai/ha)): 55.1%
- plant height, % of untreated ([1]; 2x (160 g ai/ha)): 57.7%
- root dry weight, % of untreated ([1]; 2x (160 g ai/ha)): 40.6%
- biomass accumulation, % of untreated ([1]; 3x (240 g ai/ha)): 45.6%
- plant height, % of untreated ([1]; 3x (240 g ai/ha)): 55.3%
- root dry weight, % of untreated ([1]; 3x (240 g ai/ha)): 40.2%
- biomass accumulation, % of untreated ([1]; 4x (320 g ai/ha)): 31.8%
- plant height, % of untreated ([1]; 4x (320 g ai/ha)): 27.3%
- root dry weight, % of untreated ([1]; 4x (320 g ai/ha)): 34.0%
- biomass accumulation, % of untreated ([1]; 5x (400 g ai/ha)): 34.2%
- plant height, % of untreated ([1]; 5x (400 g ai/ha)): 37.2%
- root dry weight, % of untreated ([1]; 5x (400 g ai/ha)): 48.5%
- biomass accumulation, % of untreated ([1]; 6x (480 g ai/ha)): 36.8%
- plant height, % of untreated ([1]; 6x (480 g ai/ha)): 30.0%
- root dry weight, % of untreated ([1]; 6x (480 g ai/ha)): 43.1%
- biomass accumulation, % of untreated ([2]; 0.5x (40 g ai/ha)): 100.0%
- plant height, % of untreated ([2]; 0.5x (40 g ai/ha)): 97.0%
- root dry weight, % of untreated ([2]; 0.5x (40 g ai/ha)): 100%
- biomass accumulation, % of untreated ([2]; 1x (80 g ai/ha)): 100.0%
- plant height, % of untreated ([2]; 1x (80 g ai/ha)): 95.7%
- root dry weight, % of untreated ([2]; 1x (80 g ai/ha)): 100.0%
- biomass accumulation, % of untreated ([2]; 2x (160 g ai/ha)): 97.6%
- plant height, % of untreated ([2]; 2x (160 g ai/ha)): 95.2%
- root dry weight, % of untreated ([2]; 2x (160 g ai/ha)): 92.5%
- biomass accumulation, % of untreated ([2]; 3x (240 g ai/ha)): 95.4%
- plant height, % of untreated ([2]; 3x (240 g ai/ha)): 95.7%
- root dry weight, % of untreated ([2]; 3x (240 g ai/ha)): 85.2%
- biomass accumulation, % of untreated ([2]; 4x (320 g ai/ha)): 90.5%
- plant height, % of untreated ([2]; 4x (320 g ai/ha)): 94.1%
- root dry weight, % of untreated ([2]; 4x (320 g ai/ha)): 87.0%
- biomass accumulation, % of untreated ([2]; 5x (400 g ai/ha)): 85.3%
- plant height, % of untreated ([2]; 5x (400 g ai/ha)): 94.3%
- root dry weight, % of untreated ([2]; 5x (400 g ai/ha)): 88.1%
- biomass accumulation, % of untreated ([2]; 6x (480 g ai/ha)): 83.0%
- plant height, % of untreated ([2]; 6x (480 g ai/ha)): 91.4%
- root dry weight, % of untreated ([2]; 6x (480 g ai/ha)): 69.5%
- Injury at 14 DAT [3]: 8.2 days
- Phytotoxicity Index ([4]; 0.5x (40 g ai/ha)): 0
- biomass accumulation, % of untreated ([4]; 0.5x (40 g ai/ha)): 99.2%
- plant height, % of untreated ([4]; 0.5x (40 g ai/ha)): 99.2%
- root dry weight, % of untreated ([4]; 0.5x (40 g ai/ha)): 90.3%
- Phytotoxicity Index ([4]; 1x (80 g ai/ha)): 0
- biomass accumulation, % of untreated ([4]; 1x (80 g ai/ha)): 85.0%
- plant height, % of untreated ([4]; 1x (80 g ai/ha)): 98.1%
- root dry weight, % of untreated ([4]; 1x (80 g ai/ha)): 69.9%
- Phytotoxicity Index ([4]; 2x (160 g ai/ha)): 3.1
- biomass accumulation, % of untreated ([4]; 2x (160 g ai/ha)): 58.1%
- plant height, % of untreated ([4]; 2x (160 g ai/ha)): 63.6%
- root dry weight, % of untreated ([4]; 2x (160 g ai/ha)): 41.3%
- Phytotoxicity Index ([4]; 3x (240 g ai/ha)): 3.9
- biomass accumulation, % of untreated ([4]; 3x (240 g ai/ha)): 48.1%
- plant height, % of untreated ([4]; 3x (240 g ai/ha)): 51.9%
- root dry weight, % of untreated ([4]; 3x (240 g ai/ha)): 42.8%
- Phytotoxicity Index ([4]; 4x (320 g ai/ha)): 5.9
- biomass accumulation, % of untreated ([4]; 4x (320 g ai/ha)): 28.8%
- plant height, % of untreated ([4]; 4x (320 g ai/ha)): 27.5%
- root dry weight, % of untreated ([4]; 4x (320 g ai/ha)): 22.3%
- Phytotoxicity Index ([4]; 5x (400 g ai/ha)): 6.9
- biomass accumulation, % of untreated ([4]; 5x (400 g ai/ha)): 27.4%
- plant height, % of untreated ([4]; 5x (400 g ai/ha)): 26.0%
- root dry weight, % of untreated ([4]; 5x (400 g ai/ha)): 22.7%
- Phytotoxicity Index ([4]; 6x (480 g ai/ha)): 6.7
- biomass accumulation, % of untreated ([4]; 6x (480 g ai/ha)): 24.9%
- plant height, % of untreated ([4]; 6x (480 g ai/ha)): 29.3%
- root dry weight, % of untreated ([4]; 6x (480 g ai/ha)): 16.4%
